According to ChEMBL document CHEMBL1133412, “Rational design, synthesis and structure-activity relationships of antitumor (E)-2-benzylidene-1-tetralones and (E)-2-benzylidene-1-indanones” (Bioorg Med Chem Lett, 2000):
pIC50: −log10 of the molar value. The source made the active and inactive calls. The calls are words filed in the database; no cut-off is given here.

How the values were obtained:
Format in all cases: functional, cell-based
A549 [1] = experiment: Cytotoxicity evaluated against A549 tumor cell lines; significant activity; settings: Homo sapiens
B16 [2] = experiment: Cytotoxicity was evaluated against B16 tumor cell lines; Significant activity; settings: Mus musculus
CCRF-CEM [3] = experiment: Cytotoxicity evaluated against CEM tumor cell lines; Significant activity; settings: Homo sapiens
NCI-H596 [4] = experiment: Cytotoxicity evaluated against H596 tumor cell lines; Significant activity; settings: Homo sapiens
NCI-H292 [5] = experiment: Cytotoxicity evaluated against H292 tumor cell lines; Significant activity; settings: Homo sapiens
HL-60 [6] = experiment: Cytotoxicity evaluated against HL-60 tumor cell lines; Significant activity; settings: Homo sapiens
Jurkat = experiment: In vitro test for antitumor activity against human Jurkat cell line using a formazan dye (MTT) conversion assay.
K562 [7] = experiment: Cytotoxicity evaluated against K562 tumor cell lines; Significant activity; settings: Homo sapiens
L1210 [8] = experiment: Cytotoxicity evaluated against L1210 tumor cell lines; Significant activity; settings: Mus musculus
MCF7 [9] = experiment: Cytotoxicity evaluated against MCF-7 tumor cell lines; Significant activity; settings: Homo sapiens
MOLT-4 [10] = experiment: Cytotoxicity was evaluated against Molt-4 tumor cell lines; settings: Homo sapiens
NIH3T3 [11] = experiment: Cytotoxicity evaluated against NIH3T3 tumor cell lines; Significant activity; settings: Mus musculus
WI-38 [12] = experiment: Cytotoxicity evaluated against WI38 tumor cell lines; Significant activity; settings: Homo sapiens
WIL2 [13] = experiment: Cytotoxicity evaluated against WIL2 tumor cell lines; Significant activity; settings: Homo sapiens
A549 [14] = experiment: Cytotoxicity was evaluated against A549 tumor cell lines; Inactive; settings: Homo sapiens
B16 [15] = experiment: Cytotoxicity was evaluated against B16 tumor cell lines; Inactive; settings: Mus musculus
CCRF-CEM [16] = experiment: Cytotoxicity was evaluated against CEM tumor cell lines; Inactive; settings: Homo sapiens
NCI-H596 [17] = experiment: Cytotoxicity was evaluated against H596 tumor cell lines; Inactive; settings: Homo sapiens
NCI-H292 [18] = experiment: Cytotoxicity was evaluated against H292 tumor cell lines; Inactive; settings: Homo sapiens
HL-60 [19] = experiment: Cytotoxicity was evaluated against HL-60 tumor cell lines; Inactive; settings: Homo sapiens
K562 [20] = experiment: Cytotoxicity was evaluated against K562 tumor cell lines; Inactive; settings: Homo sapiens
L1210 [21] = experiment: Cytotoxicity was evaluated against L1210 tumor cell lines; Inactive; settings: Mus musculus
MCF7 [22] = experiment: Cytotoxicity was evaluated against MCF-7 tumor cell lines; Inactive; settings: Homo sapiens
MOLT-4 [23] = experiment: Cytotoxicity was evaluated against Molt-4 tumor cell lines; Inactive; settings: Homo sapiens
NIH3T3 [24] = experiment: Cytotoxicity was evaluated against NIH3T3 tumor cell lines; Inactive; settings: Mus musculus
WI-38 [25] = experiment: Cytotoxicity was evaluated against WI38 tumor cell lines; Inactive; settings: Homo sapiens
WIL2 [26] = experiment: Cytotoxicity was evaluated against WIL2 tumor cell lines; Inactive; settings: Homo sapiens

Row | Structure (SMILES) | pIC50 (Jurkat) | Cytotoxicity (A549 [1]) | Cytotoxicity (B16 [2]) | Cytotoxicity (CCRF-CEM [3]) | Cytotoxicity (NCI-H596 [4]) | Cytotoxicity (NCI-H292 [5]) | Cytotoxicity (HL-60 [6]) | Cytotoxicity (K562 [7]) | Cytotoxicity (L1210 [8]) | Cytotoxicity (MCF7 [9]) | Cytotoxicity (MOLT-4 [10]) | Cytotoxicity (NIH3T3 [11]) | Cytotoxicity (WI-38 [12]) | Cytotoxicity (WIL2 [13]) | also measured
1 | COc1cc2c(cc1OC)C(=O)/C(=C/c1cccc(OC)c1OC)CC2 | < 4.30 | – | – | – | – | – | – | – | – | – | – | – | – | – | Cytotoxicity (A549 [14]): inactive; Cytotoxicity (B16 [15]): inactive; Cytotoxicity (CCRF-CEM [16]): inactive; Cytotoxicity (NCI-H596 [17]): inactive; Cytotoxicity (NCI-H292 [18]): inactive; Cytotoxicity (HL-60 [19]): inactive; Cytotoxicity (K562 [20]): inactive; Cytotoxicity (L1210 [21]): inactive; Cytotoxicity (MCF7 [22]): inactive; Cytotoxicity (MOLT-4 [23]): inactive; Cytotoxicity (NIH3T3 [24]): inactive; Cytotoxicity (WI-38 [25]): inactive; Cytotoxicity (WIL2 [26]): inactive
2 | COc1ccc2c(c1)C(=O)/C(=C/c1cc(C)c(O)c(C)c1)C2 | < 4.30 | – | – | – | – | – | – | – | – | – | – | – | – | – | Cytotoxicity (A549 [14]): inactive; Cytotoxicity (B16 [15]): inactive; Cytotoxicity (CCRF-CEM [16]): inactive; Cytotoxicity (NCI-H596 [17]): inactive; Cytotoxicity (NCI-H292 [18]): inactive; Cytotoxicity (HL-60 [19]): inactive; Cytotoxicity (K562 [20]): inactive; Cytotoxicity (L1210 [21]): inactive; Cytotoxicity (MCF7 [22]): inactive; Cytotoxicity (MOLT-4 [23]): inactive; Cytotoxicity (NIH3T3 [24]): inactive; Cytotoxicity (WI-38 [25]): inactive; Cytotoxicity (WIL2 [26]): inactive
3 | COc1cccc(/C=C2\Cc3cc(OC)c(OC)cc3C2=O)c1 | 4.89 | Significant activity | Significant activity | Significant activity | Significant activity | Significant activity | Significant activity | Significant activity | Significant activity | Significant activity | Significant activity | Significant activity | Significant activity | Significant activity | –
4 | COc1cc2c(cc1OC)C(=O)/C(=C/c1cccc(Cl)c1)C2 | 5.10 | Significant activity | Significant activity | Significant activity | Significant activity | Significant activity | Significant activity | Significant activity | Significant activity | Significant activity | Significant activity | Significant activity | Significant activity | Significant activity | –
5 | COc1cc2c(cc1OC)C(=O)/C(=C/c1cc(I)cc(I)c1O)C2 | 5.60 | Significant activity | Significant activity | Significant activity | Significant activity | Significant activity | Significant activity | Significant activity | Significant activity | Significant activity | Significant activity | Significant activity | Significant activity | Significant activity | –
6 | COc1cc2c(c(OC)c1OC)C(=O)/C(=C/c1cc(C)c(O)c(C)c1)C2 | 6.90 | Significant activity | Significant activity | Significant activity | Significant activity | Significant activity | Significant activity | Significant activity | Significant activity | Significant activity | Significant activity | Significant activity | Significant activity | Significant activity | –
7 | COc1cc2c(cc1OC)C(=O)/C(=C/c1cc(C)ccc1C)CC2 | 5.22 | Significant activity | Significant activity | Significant activity | Significant activity | Significant activity | Significant activity | Significant activity | Significant activity | Significant activity | Significant activity | Significant activity | Significant activity | Significant activity | –
8 | COc1ccc(OC)c(/C=C2\CCc3cc(OC)c(OC)cc3C2=O)c1 | 4.96 | Significant activity | Significant activity | Significant activity | Significant activity | Significant activity | Significant activity | Significant activity | Significant activity | Significant activity | Significant activity | Significant activity | Significant activity | Significant activity | –

More lines, main results first:

Row | pIC50 (Jurkat) | Structure (SMILES) | Cytotoxicity (A549 [1]) | Cytotoxicity (B16 [2]) | Cytotoxicity (CCRF-CEM [3]) | Cytotoxicity (NCI-H596 [4]) | Cytotoxicity (NCI-H292 [5]) | Cytotoxicity (HL-60 [6]) | Cytotoxicity (K562 [7]) | Cytotoxicity (L1210 [8]) | Cytotoxicity (MCF7 [9]) | Cytotoxicity (MOLT-4 [10]) | Cytotoxicity (NIH3T3 [11]) | Cytotoxicity (WI-38 [12]) | Cytotoxicity (WIL2 [13]) | also measured
9 | 7.26 | COc1cc2c(cc1OC)C(=O)/C(=C/c1cc(C)c(N)c(C)c1)C2 | Significant activity | Significant activity | Significant activity | Significant activity | Significant activity | Significant activity | Significant activity | Significant activity | Significant activity | Significant activity | Significant activity | Significant activity | Significant activity | –
10 | 4.72 | COc1cc2c(cc1OC)C(=O)/C(=C/c1cc(F)cc(F)c1)C2 | Significant activity | Significant activity | Significant activity | Significant activity | Significant activity | Significant activity | Significant activity | Significant activity | Significant activity | Significant activity | Significant activity | Significant activity | Significant activity | –
11 | 5.20 | COc1cc2c(cc1OC)C(=O)/C(=C/c1cc(C)c(OCC(=O)O)c(C)c1)C2 | Significant activity | Significant activity | Significant activity | Significant activity | Significant activity | Significant activity | Significant activity | Significant activity | Significant activity | Significant activity | Significant activity | Significant activity | Significant activity | –
12 | 5.32 | COc1cc2c(cc1OC)C(=O)/C(=C/c1cc(C)c(O)c(C)c1)CC2 | Significant activity | Significant activity | Significant activity | Significant activity | Significant activity | Significant activity | Significant activity | Significant activity | Significant activity | Significant activity | Significant activity | Significant activity | Significant activity | –
13 | 5.74 | COc1cc2c(cc1OC)C(=O)/C(=C/c1cccc(C)c1)C2 | Significant activity | Significant activity | Significant activity | Significant activity | Significant activity | Significant activity | Significant activity | Significant activity | Significant activity | Significant activity | Significant activity | Significant activity | Significant activity | –
14 | 6.28 | COc1cc2c(cc1O)C/C(=C\c1cc(C)c(O)c(C)c1)C2=O | Significant activity | Significant activity | Significant activity | Significant activity | Significant activity | Significant activity | Significant activity | Significant activity | Significant activity | Significant activity | Significant activity | Significant activity | Significant activity | –
